A word on the IC50: it is the concentration at which inhibition is half-maximal.

We go through 14 molecules from publication PMC4494750 (Journal of medicinal chemistry, 2011).

Counter-ions that a name gives are not always drawn.

Data set [1] concerns P. falciparum pansensitive D6. Put plainly: In vitro antimalarial activity: P. falciparum growth inhibition. It counts as cell-based. Particulars: Plasmodium falciparum, D6, 72 h, read-out: IC50 (nM) D6.
A further data set relates to P. berghei. To be noted: subcutaneous injection, mice; without cure or at doses resulting in more toxic deaths than cures; ref 7a, 7e, 7b, 16; cited from earlier work.
In another data set the test system is P. cynomolgi. To be noted: oral treatment, even at toxic doses; ref 7c; cited from earlier work.
For another data set, the system named is P. yoelii-Kenya. Put plainly: In vivo antimalarial efficacy: P. yoelii murine patent infection. Also on record: species or system P. yoelii in CF-1 mice. Particulars: for weight loss or toxicity: 5 mg/kg/day by gavage.
The mark [2] stands for this setting: 25 mg/kg/day by gavage, parasite-free for 28 days.

With `CCN(CC)CCCC(C)Nc1ccnc2cc(Cl)ccc12` (stereo not shown) [CQ, chloroquine], in data set [1], the IC50 stood at 11 nM. Consider `CCCCCC1=C/C(=C/c2[nH]c(-c3ccc[nH]3)cc2OC)N=C1C` [Compound 1, prodigiosin], for which the effect on survival result in the data set on P. berghei is on record as “extend survival”. For the same molecule, the antimalarial activity entry with P. cynomolgi is reported as “completely ineffective”.

On to `CCCCCCCCCCCC1=N/C(=C\c2[nH]c(-c3ccc[nH]3)cc2OC)C=C1` [Compound 2, undecylprodiginine], for which the effect on survival result in the data set with P. berghei is “extend survival”. On to `CCC1CCCCCCCCC2=N/C(=C\c3[nH]c(-c4ccc[nH]4)cc3OC)C1=C2` (stereo not shown) [Compound 3, metacycloprodiginine], for which the effect on survival result in the data set on P. berghei is on record as “extend survival”. Further, in the data set with P. yoelii-Kenya (100 mg/kg/day by gavage), the parasite clearance entry is “complete” and the weight loss entry is “temporary weight loss”. In addition, the mice cured entry in the data set on P. yoelii-Kenya (100 mg/kg/day by gavage, parasite-free for 28 days) is “three of four”. In the data set on P. yoelii-Kenya (initial proof-of-principle testing, 25 mg/kg/day by gavage, 54.1% in controls), the parasitemia is listed as 0.28%.

With `COC1=CC(c2ccc[nH]2)=N/C1=C\c1[nH]ccc1Cc1ccc(Cl)cc1` [Compound 41], the “weight loss or toxicity” value in the data set with P. yoelii-Kenya is listed as “without any evidence of weight loss or toxicity”.

As to `CCCCCCCCc1cc(CCC)c(/C=C2\N=C(c3ccc[nH]3)C=C2OC)[nH]1` [Compound 48, 4′-methoxy-5′-(5-octyl-3-propyl-1H-pyrrol-2-ylmethylene)-1H,5′H-[2,2′]bipyrrolyl, hydrochloride], the “weight loss or toxicity” value in the data set with P. yoelii-Kenya is on record as “without any evidence of weight loss or toxicity”.

Turning to `CCCc1cc(CCC2CCCCC2)c(/C=C2\N=C(c3ccc[nH]3)C=C2OC)[nH]1` [Compound 49], in the data set on P. yoelii-Kenya, the “weight loss or toxicity” value is “without any evidence of weight loss or toxicity”. Still for that read-out and setting: for `CCCc1cc(Cc2ccc(Cl)cc2)c(/C=C2\N=C(c3ccc[nH]3)C=C2OC)[nH]1` [Compound 57] the value was “without any evidence of weight loss or toxicity”.

With `CCCCCCc1cc(Cc2ccc(Cl)cc2)c(/C=C2\N=C(c3ccc[nH]3)C=C2OC)[nH]1` [Compound 58], in the data set on P. yoelii-Kenya, the “weight loss or toxicity” value is “without any evidence of weight loss or toxicity”. In addition, the “cures in treated group” value in the data set with P. yoelii-Kenya (setting [2]) was “one cure”. In the case of `CCCCCCCCc1cc(Cc2ccc(Cl)cc2)c(/C=C2\N=C(c3ccc[nH]3)C=C2OC)[nH]1` [Compound 60], the “weight loss or toxicity” value in the data set on P. yoelii-Kenya is reported as “without any evidence of weight loss or toxicity”. Besides, the “cures in treated group” value with P. yoelii-Kenya (setting [2]) was “one cure”. Regarding `COC1=CC(c2ccc[nH]2)=N/C1=C\c1[nH]c(Cc2ccc(Cl)cc2)cc1Cc1ccc(Cl)cc1` [Compound 66], the “weight loss or toxicity” value in the data set on P. yoelii-Kenya is “without any evidence of weight loss or toxicity”. In addition, the “weight loss or clinical overt toxicity” value with P. yoelii-Kenya (25 mg/kg/day by gavage) is on record as “without any evident weight loss or clinical overt toxicity”. For the molecule `CCCCCCCc1cc(/C=C2\N=C(c3ccc[nH]3)C=C2OC)[nH]c1C` [Compound 76, heptylprodigiosin], the effect on survival entry with P. berghei is listed as “extend survival”. `CCCC[C@H]1CCCCCCc2[nH]c(/C=C3\N=CC(c4ccc[nH]4)=C3OC)cc21` [Compound 77, butylcycloheptylprodiginine]: in the data set on P. berghei, the effect on survival result is “extend survival”.

Consider cyclononylprodiginine [Compound 78], for which the effect on survival entry in the data set with P. berghei is given as “extend survival”.
